Key:
Conditions in all cases: 72 h
[1] = test system: Calu-3; experiment: cell viability relative to DMSO; higher = less toxic
[2] = test system: HepG2; experiment: as above
[3] = test system: U2OS; experiment: as above
[4] = test system: Vero E6; experiment: as above
[5] = test system: Calu-3; experiment: relative viability EC50 (midpoint between 100% and the lowest measured viability); higher = less toxic
[6] = test system: HepG2; experiment: as above
[7] = test system: U2OS; experiment: as above
[8] = test system: Vero E6; experiment: as above
[9] = test system: Calu-3; experiment: drug sensitivity score (DSS) for viability; higher = more toxic; extreme values may be limits of the assay
[10] = test system: HepG2; experiment: as above
[11] = test system: U2OS; experiment: as above
[12] = test system: Vero E6; experiment: as above
[13] = test system: Caco-2; experiment: cell viability relative to DMSO; higher = less toxic
[14] = test system: Caco-2; experiment: drug sensitivity score (DSS) for viability; higher = more toxic; extreme values may be limits of the assay
[15] = test system: Caco-2; experiment: relative viability EC50 (midpoint between 100% and the lowest measured viability); higher = less toxic

| SMILES | cell viability ([1]; 1 nM) [%] | cell viability ([1]; 10 nM) [%] | cell viability ([1]; 100 nM) [%] | cell viability ([1]; 1000 nM) [%] | cell viability ([1]; 10000 nM) [%] | cell viability ([2]; 1 nM) [%] | cell viability ([2]; 10 nM) [%] | cell viability ([2]; 100 nM) [%] | cell viability ([2]; 1000 nM) [%] | cell viability ([2]; 10000 nM) [%] | cell viability ([3]; 1 nM) [%] | cell viability ([3]; 10 nM) [%] | cell viability ([3]; 100 nM) [%] | cell viability ([3]; 1000 nM) [%] | cell viability ([3]; 10000 nM) [%] | cell viability ([4]; 1 nM) [%] | cell viability ([4]; 10 nM) [%] | cell viability ([4]; 100 nM) [%] | cell viability ([4]; 1000 nM) [%] | cell viability ([4]; 10000 nM) [%] | relative viability EC50 [5] [µM] | relative viability EC50 [6] [µM] | relative viability EC50 [7] [µM] | relative viability EC50 [8] [µM] | drug sensitivity score [9] | drug sensitivity score [10] | drug sensitivity score [11] | drug sensitivity score [12] | cell viability ([13]; 1 nM) [%] | cell viability ([13]; 10 nM) [%] | cell viability ([13]; 100 nM) [%] | cell viability ([13]; 1000 nM) [%] | cell viability ([13]; 10000 nM) [%] | drug sensitivity score [14] | relative viability EC50 [15] [µM] |
| --- | --- | --- | --- | --- | --- | --- | --- | --- | --- | --- | --- | --- | --- | --- | --- | --- | --- | --- | --- | --- | --- | --- | --- | --- | --- | --- | --- | --- | --- | --- | --- | --- | --- | --- | --- |
| O=C(O)CCn1c2c(c3ccccc31)C[C@H](NS(=O)(=O)c1ccc(F)cc1)CC2 [ramatroban] | 92.4 | 97.7 | 94.1 | 104 | 101 | 104 | 95.6 | 103 | 93.6 | 110 | 100 | 98.4 | 95.8 | 101 | 104 | 98 | 95.7 | 92.4 | 97.4 | 104 | > 10 | > 10 | > 10 | > 10 | 0 | 0 | 0 | 0 | – | – | – | – | – | – | – |
| Cc1ccccc1C(=O)c1ccc(Nc2ccc(Br)cc2N)cc1Cl [EO-1428] | 93 | 96.6 | 83.4 | 90.8 | 89.5 | 97 | 96 | 98.3 | 85.6 | 108 | 98.5 | 101 | 96.1 | 96.2 | 82.8 | 96.7 | 101 | 93.4 | 80.7 | 92.2 | > 10 | > 10 | > 10 | > 10 | 0 | 0 | 0.7 | 0.7 | 103 | 95.5 | 92.3 | 85.7 | 74 | 2.4 | – |
| CCCCCCCCc1ccc(-c2ccc(C(=O)O)cc2)cc1 | – | – | – | – | – | 101 | 99.8 | 97.2 | 101 | 97.3 | 99 | 106 | 96.8 | 93 | 95 | 101 | 99.7 | 97.7 | 97.7 | 106 | – | > 10 | > 10 | > 10 | – | 0 | 0 | 0 | 100 | 107 | 81.5 | 98.7 | 97.3 | 0 | > 10 |
| COc1cc2c(cc1NS(=O)(=O)c1ccc(Br)cc1C)n(C)c(=O)n2C [OF-1] | – | – | – | – | – | 96.5 | 101 | 97.1 | 87.8 | 42.3 | 99.1 | 94.6 | 103 | 93 | 88.3 | 105 | 102 | 96.4 | 99.7 | 88 | – | 1.69 | > 10 | > 10 | – | 5.1 | 0.3 | 0.1 | 94 | 95.3 | 102 | 86.2 | 78.2 | 2.1 | > 10 |
| FC(F)(F)c1cccc(C2=CCN(CCc3ccc4ccccc4c3)CC2)c1 [xaliproden] | 109 | 105 | 95.5 | 109 | 95.9 | – | – | – | – | – | 98.4 | 96.3 | 99.5 | 105 | 111 | 100 | 89.7 | 92.7 | 92.7 | 104 | > 10 | – | > 10 | > 10 | 0 | – | 0 | 0 | 106 | 88.6 | 89 | 104 | 107 | 0 | > 10 |
| CCN(CC)Cc1ccc(C(=O)N(CCc2ccccc2OC)[C@@H]2CCNC2)cc1 | – | – | – | – | – | 97.9 | 96.6 | 108 | 104 | 70.5 | 95.5 | 95.7 | 96.9 | 97.2 | 99.3 | 90.3 | 97.9 | 91.5 | 93.1 | 99.9 | – | – | > 10 | > 10 | – | 1 | 0 | 0 | 99.2 | 93 | 91.6 | 101 | 98.2 | 0 | > 10 |
| O=C(O)CCc1c[nH]c2ccccc12 | 98.7 | 95.5 | 95.2 | 90.4 | 107 | 116 | 96.7 | 110 | 105 | 108 | 98.5 | 108 | 106 | 107 | 106 | 97.3 | 99.5 | 104 | 102 | 102 | > 10 | > 10 | > 10 | > 10 | 0 | 0 | 0 | 0 | – | – | – | – | – | – | – |
| CNc1cc2[nH]c(=O)n(-c3ccc(NC(=O)NS(=O)(=O)c4ccc(Cl)s4)cc3)c(=O)c2cc1F [elinogrel] | – | – | – | – | – | 100 | 91.4 | 89.7 | 94.1 | 99.8 | 95.6 | 101 | 100 | 103 | 104 | 94.6 | 95.2 | 95.2 | 95.3 | 100 | – | > 10 | > 10 | > 10 | – | 0 | 0 | 0 | 95.7 | 103 | 97.2 | 98.3 | 101 | 0 | > 10 |
| CC(C)(C)C(=O)OCOC(=O)[C@@H]1N2C(=O)[C@@H](NC(=O)[C@H](N)c3ccccc3)[C@H]2SC1(C)C [pivampicillin] | 110 | 108 | 97.7 | 98.4 | 117 | 114 | 97.7 | 91.9 | 82 | 96.9 | 98.4 | 94 | 101 | 93.3 | 97.6 | 103 | 104 | 101 | 99.4 | 102 | > 10 | > 10 | > 10 | > 10 | 0 | 0.2 | 0 | 0 | – | – | – | – | – | – | – |
| CC(C)(Oc1ccc(Cl)cc1)C(=O)N1CSCC1C(=O)O (stereo unspecified) [timofibrate] | – | – | – | – | – | 99 | 102 | 108 | 96.8 | 113 | 95.5 | 105 | 98.2 | 103 | 104 | 99.5 | 104 | 96 | 94.8 | 105 | – | > 10 | > 10 | > 10 | – | 0 | 0 | 0 | 87.1 | 99.6 | 95.7 | 98.9 | 103 | 0 | > 10 |
| COc1ccc(-c2csc(NC(=O)[C@H]3CCCCN3S(=O)(=O)c3ccc(C)cc3)n2)cc1 [ML277] | 91 | 104 | 92.1 | 92.6 | 99.2 | 97.7 | 99.7 | 112 | 101 | 60.1 | 98.4 | 98.1 | 101 | 94.2 | 90.1 | 109 | 102 | 105 | 105 | 99.9 | > 10 | – | > 10 | > 10 | 0 | 1.9 | 0 | 0 | 89.5 | 93.2 | 97.8 | 90.6 | 69.2 | 2.6 | – |
| CN1c2ccccc2C(=O)N2CCc3c([nH]c4ccccc34)C21 (stereo in doubt) [evodiamine] | 96.8 | 89.9 | 96.7 | 80.6 | 62.4 | 91.3 | 94.5 | 98.6 | 47.3 | 36.3 | 94.7 | 93.7 | 99.7 | 83.6 | 43 | 89.9 | 100 | 95.8 | 74.1 | 33.7 | – | 0.508 | 1.44 | 1.27 | 3.8 | 9.9 | 5.5 | 6.7 | 101 | 99.6 | 104 | 76.1 | 55.7 | 5.2 | – |
| CCCCN(CCCC)CCC(O)c1cc2c(Cl)cc(Cl)cc2c2cc(C(F)(F)F)ccc12 (stereo unspecified) [halofantrine] | 90.1 | 93.3 | 103 | 109 | 88.1 | 95.5 | 82.1 | 97.4 | 92.1 | 71.8 | 95.2 | 102 | 99.5 | 96.3 | 88 | 109 | 103 | 99.9 | 83.3 | 83.8 | > 10 | – | > 10 | > 10 | 0 | 2.1 | 0.2 | 1.9 | 95 | 122 | 104 | 106 | 88.7 | 0 | > 10 |
| O=C(NC[C@H](O)CN1CCc2ccccc2C1)c1cc(NC2COC2)ncn1 | 103 | 113 | 104 | 102 | 91 | 109 | 104 | 102 | 88.2 | 64.4 | 102 | 97 | 97.5 | 100 | 101 | 97.5 | 97.2 | 100 | 95.8 | 98.9 | > 10 | – | > 10 | > 10 | 0 | 3.4 | 0 | 0 | 96.1 | 92 | 91 | 95.5 | 91.2 | 0 | > 10 |
| CC(=O)Oc1ccc(C(c2ccc(OC(C)=O)cc2)c2ccccn2)cc1 [bisacodyl] | 111 | 105 | 102 | 99.2 | 88.2 | 98.3 | 99.5 | 104 | 95.1 | 100 | 101 | 102 | 100 | 89.9 | 87.3 | 99.6 | 94.1 | 97.1 | 95.7 | 80.7 | > 10 | > 10 | > 10 | > 10 | 0.1 | 0 | 0.6 | 1 | 92.8 | 84.9 | 107 | 80.5 | 60.3 | 4.4 | – |
| CC(C)(c1ccc(O)cc1)c1ccc(O)cc1 [bisphenol-A] | – | – | – | – | – | 98.7 | 94.4 | 103 | 94.6 | 106 | 101 | 109 | 99.6 | 107 | 102 | 107 | 105 | 99.2 | 98 | 88.6 | – | > 10 | > 10 | > 10 | – | 0 | 0 | 0.1 | 92.2 | 111 | 102 | 97.3 | 88.8 | 0.1 | > 10 |

From the supplement of paper PMC13380429
